Test results taken from patent US20240254138A1, “TRICYCLIC PYRIMIDINES AS CYCLIN-DEPENDENT KINASE 7 (CDK7) INHIBITORS” (JANSSEN PHARMACEUTICA NV, priority 2021, published 2024).
Where two headings read alike, the source gives them in different places.

Assays:
[1] = tested on: RNA Polymerase II Serine 5 phosphorylation in A549 cells overexpressing CDK7-mutant (C312S); test: Imaging-based cellular RNA PolII Ser5 phosphorylation assay in A549 cells overexpressing CDK7-mutant (C312S); assay type: cell-based, human; conditions: RNA PolII Ser5 phosphorylation, averaged over all measurements; for IC50: Homo sapiens, A549, A549 cells overexpressing CDK7-mutant (C312S), read-out: CDK7_A549 mutant hCDK7(pIC50) (converted)
Summary of the method: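 A549 cells overexpressing CDK7 C312S (with endogenous wild-type CDK7) were treated with compound for 3 h at 37 °C in 1% FBS medium. Phospho-Rpb1 CTD Ser5 was immunostained after fixation and imaged. IC50 came from curve fit of % control, normalised to DMSO and 10 μM reference-compound controls.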

[2] = tested on: RNA Polymerase II Serine 5 phosphorylation (Rpb1 CTD, downstream substrate of CDK7) in A549 cells; test: Imaging-based cellular RNA PolII Ser5 phosphorylation assay in A549 cells; assay type: cell-based, human; conditions: wild-type CDK7, RNA PolII Ser5 phosphorylation, averaged over all measurements; for IC50: Homo sapiens, A549, A549 cells, read-out: CDK7_A549 Wild-type CDK7 (pIC50) (converted)
Summary of the method: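 A549 cells, seeded 1000/well in DMEM with 1% FBS and cultured 20 h, were treated with compound for 3 h at 37 °C. Ser5-phospho-Rpb1 CTD detected by immunofluorescence imaging after fixation and methanol permeabilization; IC50 from curve fit normalized to DMSO and 10 μM reference-compound controls.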

[3] = molecular target: CDK7/cyclinH/MAT1 trimeric complex (Homo sapiens, UniProt P50613); test: In vitro CDK7 assay, potency of irreversible covalent inhibitors (kinact/KI), coupled PK/LDH ADP readout at 340 nm
Sequence of CDK7/cyclinH/MAT1 trimeric complex (P50613 whole entry): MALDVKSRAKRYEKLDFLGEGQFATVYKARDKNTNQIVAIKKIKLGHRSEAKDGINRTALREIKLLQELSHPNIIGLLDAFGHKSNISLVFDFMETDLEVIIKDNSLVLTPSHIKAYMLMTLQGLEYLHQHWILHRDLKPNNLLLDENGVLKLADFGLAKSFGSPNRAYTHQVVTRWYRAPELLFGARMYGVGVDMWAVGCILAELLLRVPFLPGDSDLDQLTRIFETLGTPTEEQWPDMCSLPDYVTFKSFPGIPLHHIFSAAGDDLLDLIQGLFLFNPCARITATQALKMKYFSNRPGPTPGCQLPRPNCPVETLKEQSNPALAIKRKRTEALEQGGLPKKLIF
Sequence of CDK7/cyclinH/MAT1 trimeric complex (P51946 whole entry partner): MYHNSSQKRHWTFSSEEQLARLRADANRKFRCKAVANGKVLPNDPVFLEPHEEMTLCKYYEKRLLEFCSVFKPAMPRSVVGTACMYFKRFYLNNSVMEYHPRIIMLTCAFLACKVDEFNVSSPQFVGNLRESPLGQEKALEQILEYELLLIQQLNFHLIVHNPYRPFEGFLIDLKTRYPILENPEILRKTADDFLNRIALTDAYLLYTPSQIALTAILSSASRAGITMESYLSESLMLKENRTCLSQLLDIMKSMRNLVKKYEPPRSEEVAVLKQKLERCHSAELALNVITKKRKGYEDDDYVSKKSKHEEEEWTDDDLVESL
Sequence of CDK7/cyclinH/MAT1 trimeric complex (P51948 whole entry partner): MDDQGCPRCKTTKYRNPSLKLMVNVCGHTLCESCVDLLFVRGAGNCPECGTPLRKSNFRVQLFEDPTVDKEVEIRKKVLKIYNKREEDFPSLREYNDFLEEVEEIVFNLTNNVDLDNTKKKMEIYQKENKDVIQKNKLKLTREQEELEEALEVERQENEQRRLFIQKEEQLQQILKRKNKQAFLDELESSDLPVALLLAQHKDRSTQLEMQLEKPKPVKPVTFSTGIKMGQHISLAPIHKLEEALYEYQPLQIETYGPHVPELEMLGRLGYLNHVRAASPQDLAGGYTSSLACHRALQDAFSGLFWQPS

[4] = CDK7 (20 nM enz.) (KI, μM), 20 nM enzyme
[5] = read-out: CDK7 (20 nM enz.) (kinact, s^−1), 20 nM enzyme
[6] = read-out: CDK7 (20 nM enz.) (kinact/KI, M^−1*s^−1), 20 nM enzyme
[7] = read-out: CDK7 (20 nM enz.) (kobs/[I], M^−1*s^−1), 20 nM enzyme

Row | Structure (SMILES) | IC50 [1] [µM] | IC50 [2] [nM] | Ki [3, 4] [µM] | kinact [3, 5] [s⁻¹] | kinact/KI [3, 6] [M⁻¹ s⁻¹] | CDK7_A549 mutant hCDK7(pIC50) ([1]; A549 cells overexpressing CDK7-mutant (C312S)) | CDK7_A549 Wild-type CDK7 (pIC50) ([2]; A549 cells) | CDK7 (20 nM enz.) (kinact, s^−1) ([3]; 20 nM enzyme) [s⁻¹] | CDK7 (20 nM enz.) (kinact/KI, M^−1*s^−1) ([3]; 20 nM enzyme) [M⁻¹ s⁻¹] | kinact/KI [3, 7] [M⁻¹ s⁻¹] | Ki ([3]; CDK7 (KI(μM)), […], 1 mM ATP, room temperature, averaged values over all measurements) [µM] | kinact ([3]; read-out: CDK7 (kinact, s^−1), kinact = maximal rate of inactivation, 1 mM ATP, room temperature, averaged values over all measurements) [s⁻¹] | kinact/KI ([3]; read-out: CDK7 (kinact/KI, M^−1*s^−1), potency of irreversible covalent inhibitors, 1 mM ATP, room temperature, averaged values over all measurements) [M⁻¹ s⁻¹]
1 | C=CC(=O)N1CCC(N2CC(c3cc4c(c(C#N)n3)O[C@@H](C)c3c(N5CCOCC5)ccnc3N4)C2)CC1 (single isomer, unassigned) [Compound 491] | > 10 | 479 | 0.403 | 2.48e-05 | 61.4 | – | – | – | – | – | – | – | –
2 | C=CC(=O)N1CCC(N2CC(c3cc4c(c(C(F)(F)F)n3)OCc3c(N5CCOCC5)ccnc3N4)C2)CC1 [Compound 453] | – | – | 0.0717 | – | – | 5.54 | 7.13 | 3.153e-05 | 439.69 | – | – | – | –
3 | C=CC(=O)N1CC[C@@H](N2CCC(c3cc(C)c4c(c3)Nc3nccc(-c5cnn(C)c5)c3CO4)CC2)C1 (single isomer, unassigned) [Compound 134] | ~8.71 | 38 | – | – | – | – | – | – | – | 1530 | – | – | –
4 | C=CC(=O)N1CC(N2CC[C@H](c3ccc4c(c3)Nc3nccc(N5CCOCC5)c3CO4)[C@@H](F)C2)C1 [Compound 110] | > 10 | 257 | 0.23 | – | – | – | – | 5.833e-05 | 253.792 | – | – | – | –
5 | C=CC(=O)N1CCC(N2CCC(c3ccc4c(c3)Nc3nccc(N5CCS(=O)(=NC)CC5)c3CO4)CC2)CC1 [Compound 95] | > 10 | 288 | 0.48 | 4.87e-05 | 101 | – | – | – | – | – | – | – | –
6 | C#Cc1cc(C(=O)Nc2ccc3c(c2)Nc2nccc(C4CCOCC4)c2CO3)ccc1NC(=O)C=C [Compound 18] | 4.27 | 100 | – | – | – | – | – | – | – | 1070 | – | – | –
7 | C=CC(=O)N1CC[C@H](N2CC(c3cc4c(c(C)n3)O[C@@H](C)c3c(N5CCOCC5)ccnc3N4)C2)C1 (single isomer, unassigned) [Compound 458] | > 10 | 5250 | 19.2 | 6.89e-05 | 3.59 | – | – | – | – | – | – | – | –
8 | C=CC(=O)N1CC[C@H](N2CC(c3cc4c(c(C5CC5)n3)O[C@H](C)c3c(N5CCOCC5)ccnc3N4)C2)C1 (single isomer, unassigned) [Compound 463] | > 10 | 1050 | 0.423 | 3.44e-05 | 81.3 | – | – | – | – | – | – | – | –
9 | C=CC(=O)N1CC(N2CCC(c3ccc4c(c3)Nc3nccc(-c5cnc6[nH]ccc6c5)c3CO4)CC2)C1 [Compound 31] | > 10 | 437 | – | – | – | – | – | – | – | – | 0.175 | 0.000112 | 638
10 | C=CC(=O)N1CC[C@H](N2CC(c3cc4c(c(C)n3)OCc3c(-c5cnn(C)c5)ccnc3N4)C2)C1 (single isomer, unassigned) [Compound 199] | > 10 | 288 | 0.449 | 3.63e-05 | 80.8 | – | – | – | – | – | – | – | –
11 | C=CC(=O)N1CCC(N2CC(c3cc(F)c4c(c3)Nc3nccc(C5CCOCC5)c3[C@H](C)O4)C2)CC1 (single isomer, unassigned) [Compound 155] | > 10 | 501 | 2.09 | 4.59e-05 | 22 | – | – | – | – | – | – | – | –
12 | C=CC(=O)N1CC[C@@H](N2CC(c3cc(C)c4c(c3)Nc3nccc(N5CCOCC5)c3CO4)C2)C1 (single isomer, unassigned) [Compound 149] | > 10 | 50.1 | 0.0542 | 6.66e-05 | 1230 | – | – | – | – | – | – | – | –
13 | CC#CC(=O)N1CC(N2CCC(c3cc4c(c(C#N)n3)O[C@@H](C)c3c(N5CCOCC5)ccnc3N4)CC2)C1 (single isomer, unassigned) [Compound 520] | > 10 | 158 | 0.00977 | 2.91e-05 | – | – | – | – | 2981 | – | – | – | –
14 | C=CC(=O)N1CC[C@H](N2CC(c3cc4c(c(C)n3)O[C@H](C)c3c(-c5cnn(C)c5)ccnc3N4)C2)C1 (single isomer, unassigned) [Compound 478] | > 10 | 158 | – | – | 292 | – | – | – | – | – | – | – | –
